In brackets after ≈: the same amount, converted by molar mass. Several values for one entry are separate records, joined by “and”; a condition that tells them apart may be missing. Identical values can stand only once. Like-named read-outs stand apart in the source and are kept apart here.
Assays:
[1] = test system: Klebsiella pneumoniae ATCC 13883; conditions: Gram negative reference strain
[2] = test system: P. aeruginosa-gentamicin^r, meropenem^r; conditions: Gram negative clinical isolate
S. epidermidis MRSE [3] = conditions: Gram positive clinical isolate
CXCR4 = target: T1, CXCR4 (Homo sapiens, UniProt P61073); assay: Competition with 12G5 mAb binding to CXCR4 on MT2 cells (flow cytometry)
T1 construct: incubated at 4° C. with anti-CXCR4 mAb, 12G5, conjugated to phycoerithrine (PE); endogenous in cells; host or cells: MT2 cells
T1 sequence (P61073 whole entry): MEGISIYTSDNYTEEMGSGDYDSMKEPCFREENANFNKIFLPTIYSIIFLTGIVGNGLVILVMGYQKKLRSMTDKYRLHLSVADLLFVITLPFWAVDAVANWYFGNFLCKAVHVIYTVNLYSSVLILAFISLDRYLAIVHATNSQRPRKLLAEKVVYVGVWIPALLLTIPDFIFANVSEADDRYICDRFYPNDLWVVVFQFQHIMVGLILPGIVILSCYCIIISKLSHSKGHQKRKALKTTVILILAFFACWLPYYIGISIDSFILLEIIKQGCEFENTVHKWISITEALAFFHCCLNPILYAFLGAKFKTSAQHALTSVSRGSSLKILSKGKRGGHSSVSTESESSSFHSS
In short: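 MT2 cells (0.5×10^6) were incubated for 30 min at 4 °C with PE-conjugated 12G5 anti-CXCR4 mAb, alone or with varying concentrations of pAACs or arginine peptides, in ice-cold PBS/0.1% azide. Cells were then fixed in 1% paraformaldehyde and analysed by flow cytometry (10,000 events), with an isotype control defining non-specific fluorescence.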

[4] = test system: Acinetobacter baumannii ATCC 19606; conditions: Gram negative reference strain
VRE faecium = conditions: clinical isolate, Table 7
[5] = test system: Moraxella catarrhalis ATCC 25238 (Branhamella); conditions: Gram negative reference strain
E. coli U3075921 = assay: MIC, broth microdilution; format: cell-based, Escherichia coli; conditions: clinical isolate, Table 7
Description: Minimal Inhibition Concentration (MIC) measurements: The Minimal Inhibitory Concentration (MIC) was generally determined by the Broth Microdilution method (based on the protocol described in Clinical and Laboratory Standard Institute (CLSI) NCCLS (2003) M7-A6), as follows:
A stock solution of each of the tested compounds was prepared by diluting the compound to a 2,560 μg/ml concentration with an appropriate solvent. The stock solution was then serially 2-fold diluted in 96-well microdilution trays using Cation-Adjusted Mueller-Hinton Broth (CAMHB) until reaching the desired range of concentrations, whereas each well contained double the final working concentration. Each row further had one growth control well (medium+inoculum only), and one sterility control well (medium+tested compound). Plates were stored at −70° C. until used.
The tested microorganisms were used as fresh overnight cultures on blood agar (for gram-positive organisms) or MacConkey agar (for gram-negatives). A standardized inoculum suspension was prepared by the direct colony suspension method, using sterile saline (equivalent to a 0.5 McFarland standard).
Thus, 50 μl of the inoculum suspension were added to each tested well (except for the sterility control well), and […] was performed during 18-24 hours (depending on the tested microorganism or compound) at 35° C.

S. aureus MRSA [6] = conditions: Gram positive clinical isolate
Enterobacter aerogenes = conditions: Gram negative clinical isolate
Enterobacter cloacae = conditions: Gram negative clinical isolate
[7] = test system: Enterococcus faecalis (clinical isolate); assay: microbe, parasite or virus in culture; conditions: read-out: Minimum Inhibitory Concentration
[8] = test system: A. baumannii-amikacin^s, meropenem^s; assay: microbe, parasite or virus in culture; conditions: Acinetobacter baumannii, read-out: Minimum Inhibitory Concentration
Serratia marcescens = assay: microbe, parasite or virus in culture; conditions: read-out: Minimum Inhibitory Concentration
E. Coli-ESBL positive = assay: microbe, parasite or virus in culture; conditions: Escherichia coli, read-out: Minimum Inhibitory Concentration
S. epidermidis MSSE = assay: microbe, parasite or virus in culture; conditions: Staphylococcus epidermidis, read-out: Minimum Inhibitory Concentration
[9] = test system: Moraxella catarrhalis ATCC 25238 (Branhamella); assay: microbe, parasite or virus in culture; conditions: ATCC25238, read-out: Minimum Inhibitory Concentration
[10] = test system: Enterobacter cloacae W25161; assay: microbe, parasite or virus in culture; conditions: W25161, read-out: Minimum Inhibitory Concentration
K. pneumoniae B2511 = assay: MIC, broth microdilution; format: cell-based; conditions: Klebsiella pneumoniae, Gram negative clinical isolate, read-out: Minimum Inhibitory Concentration
[11] = test system: P. aeruginosa-gentamicin^r, meropenem^r; assay: microbe, parasite or virus in culture; conditions: Pseudomonas aeruginosa, read-out: Minimum Inhibitory Concentration
[12] = test system: K. pneumoniae-ESBL positive; assay: microbe, parasite or virus in culture; conditions: Klebsiella pneumoniae, read-out: Minimum Inhibitory Concentration
E. Coli-ESBL negative = assay: microbe, parasite or virus in culture; conditions: Escherichia coli, read-out: Minimum Inhibitory Concentration
S. aureus MRSA [13] = assay: microbe, parasite or virus in culture; conditions: Staphylococcus aureus, read-out: Minimum Inhibitory Concentration
S. epidermidis MRSE [14] = assay: microbe, parasite or virus in culture; conditions: Staphylococcus epidermidis, read-out: Minimum Inhibitory Concentration
P. aeruginosa R17093 = assay: MIC, broth microdilution; format: cell-based, Pseudomonas aeruginosa; conditions: Gram negative clinical isolate, read-out: Minimum Inhibitory Concentration
E. coli U23773^r = assay: microbe, parasite or virus in culture; conditions: Escherichia coli, read-out: Minimum Inhibitory Concentration
[15] = test system: Enterococcus faecalis ATCC 29212; assay: microbe, parasite or virus in culture; conditions: ATCC29212, read-out: Minimum Inhibitory Concentration

Compound: CC(=O)N[C@H](CCCNC(=N)N)C(=O)N[C@H](CCCNC(=N)N)C(=O)N[C@H](CCCNC(=N)N)C(=O)N[C@H](CCCNC(=N)N)C(=O)N[C@H](CCCNC(=N)N)C(=O)N[C@H](CCCNC(=N)N)C(=O)N[C@H](CCCNC(=N)N)C(=O)N[C@H](CCCNC(=N)N)C(=O)N[C@H](CCCNC(=N)N)C(=O)O [Compound 12, D-Arg-9-mer-NHAc]
- Minimum Inhibitory Concentration [1]: 96.0 mg/liter and 47.86 μM
- Minimum Inhibitory Concentration [2]: > 256.0 mg/liter and 127.64 μM
- Minimum Inhibitory Concentration (S. epidermidis MRSE [3]): 96.0 mg/liter and 47.86 μM
- inhibition at 2 µM (CXCR4; 2 μM, read-out: % Inhibition of 12G5 mAb binding to CXCR4): 81.3%
- inhibition at 10 µM (CXCR4; 10 μM, read-out: % Inhibition of 12G5 mAb binding to CXCR4): 99.6%
- Minimum Inhibitory Concentration [4]: > 256.0 mg/liter and 127.64 μM
- Minimum Inhibitory Concentration (VRE faecium): > 128.0 mg/L
- Minimum Inhibitory Concentration [5]: 16.0 mg/liter and 7.98 μM
- Minimum Inhibitory Concentration (E. coli U3075921): 96.0 mg/L
- Minimum Inhibitory Concentration (S. aureus MRSA [6]): > 128.0 mg/liter and 63.82 μM
- Minimum Inhibitory Concentration (Enterobacter aerogenes): 128.0 mg/liter and 63.82 μM
- Minimum Inhibitory Concentration (Enterobacter cloacae): 128.0 mg/liter and 63.82 μM

Compound: D-Arg-9-mer-neomycin [Compound 14]
- Minimum Inhibitory Concentration [1]: 12.0 mg/liter and 4.14 μM
- Minimum Inhibitory Concentration [2]: > 156.0 mg/liter and 53.76 μM
- Minimum Inhibitory Concentration (S. epidermidis MRSE [3]): 8.0 mg/liter and 2.76 μM
- % Inhibition of 12G5 mAb binding to CXCR4 (CXCR4; 2 μM): 95.3%
- % Inhibition of 12G5 mAb binding to CXCR4 (CXCR4; 10 μM): 100%
- Minimum Inhibitory Concentration [4]: > 256.0 mg/liter and 88.22 μM
- Minimum Inhibitory Concentration [5]: 8.0 mg/liter and 2.76 μM
- Minimum Inhibitory Concentration (E. coli U3075921): 48.0 mg/liter and 16.54 μM
- Minimum Inhibitory Concentration (S. aureus MRSA [6]): 32.0 mg/liter and 11.02 μM
- Minimum Inhibitory Concentration (Enterobacter aerogenes): 32.0 mg/liter and 11.02 μM
- Minimum Inhibitory Concentration (Enterobacter cloacae): 64.0 mg/liter and 22.05 μM

Compound: NCC1OC(OC2C(CO)OC(OC3C(O)C(N)CC(N)C3OC3OC(CN)C(O)C(O)C3N)C2O)C(N)C(O)C1O (stereo not shown) [Neomycin]
- MIC [7]: 128 µg/mL and 141 µM
- MIC [8]: 3 µg/mL and 3.3 µM
- MIC (Serratia marcescens): 1 µg/mL and 1.1 µM
- MIC (E. Coli-ESBL positive): 4 µg/mL and 4.4 µM
- MIC (S. epidermidis MSSE): 0.5 µg/mL and 0.55 µM
- MIC [9]: 0.25 µg/mL and 0.28 µM
- MIC [10]: 3 µg/mL and 3.3 µM
- MIC (K. pneumoniae B2511): 1.5 µg/mL and 1.65 µM
- MIC [11]: 128 µg/mL and 141 µM
- MIC [12]: 1.5 µg/mL and 1.65 µM
- MIC (E. Coli-ESBL negative): 1 µg/mL and 1.1 µM
- MIC (S. aureus MRSA [13]): 1 µg/mL and 1.1 µM
- MIC (S. epidermidis MRSE [14]): 0.5 µg/mL and 0.55 µM
- MIC (P. aeruginosa R17093): 211.22 µM (≈ 130 µg/mL)
- MIC (P. aeruginosa R17093; Pseudomonas aeruginosa, R17093): 211 µM and 192 µg/mL
- MIC (E. coli U23773^r): 141 µM and 128 µg/mL
- MIC [15]: 128 µg/mL and 141 µM

— patent US20060166867A1, “Novel conjugates of polysaccharides and uses thereof” (priority 2003, published 2006)
